Reference: patent EP1881000A1, “Conjugates of 2-fluoro-2-deoxy-glucose and their uses as anti cancer agents” (INSTITUT NATIONAL DE LA SANTE ET DE LA RECHERCHE MEDICALE …, priority 2006, dated 2008)

Tests used:
Assay in all cases: In vitro cytotoxicity assay (resazurin reduction test)
Assay type in all cases: cell-based
[1] = test system: M4Beu, a human melanoma cell line; settings: 48-h continuous drug exposure
Text: (§1) Normal human fibroblasts were purchased from Promocell (Heidelberg, Germany). This frozen culture was obtained from foreskin waste and the cells used in this work were from the seventh to twelfth passage of the culture. M4Beu, a human melanoma cell line, was established in the laboratory of Dr. J. F. Doré (INSERM, Unit 218, Lyon, France) from metastatic biopsy specimens and maintained in cell culture for almost 20 years in our lab. Breast cancer adenocarcinoma MCF 7, prostatic adenocarcinoma PC 3, colon adenocarcinoma DLD-1, lung non-small cell carcinoma A 549, ovary adenocarcinoma PA1 human cell lines and L 929 murine cell line were purchased from the European Collection of Cell Cultures (ECACC; Salisbury, United Kingdom). Murine Melanoma B16 was purchased from American Type of Culture Collection (ATCC, Manassas, USA) and murine colon carcinoma cell line CT-26 was obtained from Dr I. J. Fidler (University of Texas M.D. Anderson Cancer Center, Houston).
(§2) Stock cell cultures were maintained as monolayers in 75cm^2 culture flasks in Glutamax Eagle's minimum essential medium with Earle's salts (MEM; Gibco BRL, Paisley, UK) supplemented with 10% fetal calf serum (Sigma, St Quentin Fallavier, France), 1 mM sodium pyruvate (Gibco), 1X vitamins solution (Gibco), 1X non essential amino acids solution (Gibco) and 4 µg/ml of gentamicine (Gibco). Cells were grown at 37°C in a humidified atmosphere containing 5% CO2.
(§3) Cells were plated at a density of 5 x 10^3 cells per well in 96-well microplates (Nunclon™, Nunc, Roskilde, Denmark) in 150 µl of culture medium and were allowed to adhere for 16 h before treatment with the compound tested.
(§4) Stock solution of each compound was prepared in dimethylsulfoxide (DMSO) and kept at -20°C. until use. The percentage of DMSO was kept at 0.5% (v/v) whichever the concentration tested. […] Fifty microliters of a 4X solution in MEM was then added and a 48-h continuous drug exposure protocol was used. Then, the cytotoxic effect of compounds on tumour cells was tested by using Resazurin reduction test.
(§5) Resazurin was identified as the Alamar blue dye (O'Brien, J. et al.; European Journal of Biochemistry, 267, 5421-6, (2000)). The resazurin reduction test (RRT) was carried out according to the protocol described here. Briefly, plates were rinsed by 200 µl PBS (37° C, Gibco) using a multichannel dispenser (Labsystems, Helsinki, Finland) and emptied by overturning on absorbent toweling. Then, 150 µl of a 25 µg/ml solution of resazurin in MEM without SVF nor Phenol red was added in each well. The plates were incubated 1 h at 37° C. in an humidified atmosphere with 5% of CO2 for fluorescence development by living cells. Fluorescence was then measured on the automated 96-well plate reader Fluoroskan Ascent FL™ (Labsystems) using an excitation wavelength of 530 nm and an emission one of 590 nm.
(§6) Cytotoxic activity has been tested against the six human tumour cell lines breast adenocarcinoma MCF-7, colon adenocarcinoma DLD-1, ovary adenocarcinoma PA1, prostatic adenocarcinoma PC3, lung carcinoma A549, melanoma M4Beu and a primary culture of human fibroblasts.

[2] = test system: lung non-small cell carcinoma A 549; settings: Homo sapiens; A549; 48-h continuous drug exposure
Text: as §1, §2, §3, §4, §5, §6

ovary adenocarcinoma PA1 = settings: Homo sapiens, 48-h continuous drug exposure
Text: as §1, §2, §3, §4, §5, §6

[3] = test system: colon adenocarcinoma DLD-1; settings: Homo sapiens, DLD1, 48-h continuous drug exposure
Text: as §1, §2, §3, §4, §5, §6

Normal human fibroblasts = settings: Fibroblast, 48-h continuous drug exposure
Text: as §1, §2, §3, §4, §5, §6

[4] = test system: prostatic adenocarcinoma PC 3; settings: Homo sapiens; PC3; 48-h continuous drug exposure
Text: as §1, §2, §3, §4, §5, §6

[5] = test system: Breast cancer adenocarcinoma MCF 7; settings: Homo sapiens; MCF7; 48-h continuous drug exposure
Text: as §1, §2, §3, §4, §5, §6

[6] = test system: murine colon carcinoma cell line CT-26; settings: Mus musculus; CT26; 48-h continuous drug exposure
Text: as §1, §2, §3, §4, §5

Murine Melanoma B16 = settings: Mus musculus, 48-h continuous drug exposure
Text: as §1, §2, §3, §4, §5

SMILES	IC50 [1]	IC50 [2]	IC50 (ovary adenocarcinoma PA1)	IC50 [3]	IC50 (Normal human fibroblasts)	IC50 [4]	IC50 [5]	IC50 [6]	IC50 (Murine Melanoma B16)
CC(=O)OC[C@H]1O[C@@H](NC(=O)NCCCc2ccc(N(CCCl)CCCl)cc2)[C@H](F)[C@@H](OC(C)=O)[C@@H]1OC(C)=O [Compound 17a, N-(3,4,6-tri-O-acetyl-2-deoxy-2-fluoro-β-D-glucopyranosyl)-N'-{3-(4-[bis(2-chloroethyl)amino]phenyl)propyl}urea]	27 ± 11 µM	8 ± 2 µM	0.6 ± 0.2 µM	7 ± 3 µM	13 ± 2 µM	4 ± 1 µM	26.4 ± 0.6 µM		
CC(=O)OC[C@H]1O[C@@H](NC(=O)c2ccc(NC(=O)CCCc3ccc(N(CCCl)CCCl)cc3)cc2)[C@H](F)[C@@H](OC(C)=O)[C@@H]1OC(C)=O [Compound 20a, N-(3,4,6-tri-O-acetyl-2-deoxy-2-fluoro-β-D-glucopyranosyl)-4-(4-{4-[bis(2-chloroethyl)amino]phenyl}butanamido)benzamide]	7 ± 3 µM	2.7 ± 0.6 µM	0.3 ± 0.1 µM	3 ± 2 µM	4 ± 2 µM	1.4 ± 0.3 µM	5 ± 2 µM	1.7 ± 0.3 µM	4.6 ± 0.3 µM
CC(=O)OC[C@H]1O[C@@H](NC(=O)CCCNC(=O)CCCc2ccc(N(CCCl)CCCl)cc2)[C@H](F)[C@@H](OC(C)=O)[C@@H]1OC(C)=O [Compound 22a, N-[4-(3,4,6-tri-O-acetyl-2-deoxy-2-fluoro-β-D-glucopyranosylamino)-4-oxobutyl]-4-{4-[bis(2-chloroethyl)amino]phenyl}butanamide]	9 ± 3 µM	13 ± 5 µM	0.27 ± 0.04 µM	9 ± 2 µM	4.1 ± 0.1 µM	3 ± 1 µM	12 ± 1 µM		
CC(=O)OC[C@H]1O[C@@H](NC(=O)CCNC(=O)CCCc2ccc(N(CCCl)CCCl)cc2)[C@H](F)[C@@H](OC(C)=O)[C@@H]1OC(C)=O [Compound 31a, N-[3-(3,4,6-tri-O-acetyl-2-deoxy-2-fluoro-β-D-glucopyranosylamino)-3-oxopropyl]-4-{4-[bis(2-chloroethyl)amino]phenyl}butanamide]	15 ± 3 µM	9.2 ± 0.5 µM	0.24 ± 0.08 µM	11 ± 4 µM	7 ± 5 µM	3.7 ± 0.3 µM	13 ± 5 µM		
CC(=O)OC[C@H]1O[C@@H](Oc2ccc(NC(=O)CCCc3ccc(N(CCCl)CCCl)cc3)cc2)[C@H](F)[C@@H](OC(C)=O)[C@@H]1OC(C)=O [Compound 37a, N-[4-(3,4,6-tri-O-acetyl-2-deoxy-2-fluoro-β-D-glucopyranosyloxy)phenyl]-4-{4-[bis(2-chloroethyl)amino]phenyl}butanamide]	> 50 µM	1.9 ± 0.01 µM	0.76 ± 0.06 µM	10 ± 5 µM	> 50 µM	11 ± 4 µM	26 ± 11 µM		
